Results as given in article PMC6315005, “5F-Cumyl-PINACA in ‘e-liquids’ for electronic cigarettes: comprehensive characterization of a new type of synthetic cannabinoid in a trendy product including investigations on the in vitro and in vivo phase I metabolism of 5F-Cumyl-PINACA and its non-fluorinated analog Cumyl-PINACA” (Forensic Toxicology, 2018).
Read-outs that look alike come from different tables or passages of the source.

Experiments:
[1] = target: T1, CB1 (Homo sapiens, UniProt P21554); assay: cAMP biosensor assay with CB1 as target (DiscoveRx); assay type: cell-based; settings: for Curve top: agonist format, 20 µM forskolin; for Emax: read-out: Maximum response (compared to CP-55,940)
T1 construct: purchased DiscoveRx (Fremont, CA, USA)
T1 sequence (P21554 whole entry): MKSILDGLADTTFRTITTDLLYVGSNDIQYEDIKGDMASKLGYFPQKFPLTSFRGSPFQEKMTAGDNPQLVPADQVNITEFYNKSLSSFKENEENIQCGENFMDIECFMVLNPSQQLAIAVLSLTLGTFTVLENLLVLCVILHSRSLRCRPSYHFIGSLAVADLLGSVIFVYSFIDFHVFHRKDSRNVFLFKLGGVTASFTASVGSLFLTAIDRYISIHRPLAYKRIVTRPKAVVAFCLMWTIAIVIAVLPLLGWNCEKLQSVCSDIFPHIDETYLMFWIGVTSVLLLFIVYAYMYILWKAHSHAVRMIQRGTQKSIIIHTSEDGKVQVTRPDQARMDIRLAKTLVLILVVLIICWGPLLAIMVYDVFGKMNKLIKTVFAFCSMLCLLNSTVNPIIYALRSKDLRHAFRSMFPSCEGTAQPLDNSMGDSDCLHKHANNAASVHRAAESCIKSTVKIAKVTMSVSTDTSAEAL
Protocol: Each compound was tested in duplicates; to induce response, 20 µM forskolin was used.

[2] = tested on: CB1 receptors; parameters: method as in PMID 28792725; settings: mouse AtT-20 neuroblastoma cells, membrane potential; cited from earlier work
[3] = tested on: CB2 receptors; parameters: method as in PMID 28792725; settings: mouse AtT-20 neuroblastoma cells, membrane potential; cited from earlier work
[4] = tested on: CB1 receptor; parameters: method as in PMID 29367862; settings: [35S]GTPγS binding; cited from earlier work
[5] = tested on: CB2 receptor; parameters: method as in PMID 29367862; settings: [35S]GTPγS binding; cited from earlier work
[6] = Self-administration study, phase I metabolites of Cumyl-PINACA in urine (LC-MS/MS); assay type: in vivo, human; settings: for peak area in urine: normalized to creatinine 100 mg/dL
Protocol: (§1) The LC–MS/MS system used for the analysis of the urine and the pHLM assay samples consisted of a Nexera X2 UHPLC (Shimadzu) coupled to a QTRAP™ 5500 triple quadrupole linear ion trap instrument (SCIEX) equipped with the TurboIonSpray® probe. […] The total flow rate was 0.4 mL/min. The autosampler and the column oven temperatures were set to 10 and 40 °C, respectively.
(§2) The MRM ion transitions of the parent compounds were optimized carefully in positive ionization mode (see Supplementary Tables S1 and S2). Enhanced product ion (EPI) scan experiments were performed using hypothetical masses of anticipated phase I metabolites, and the obtained spectra were compared to the EPI spectrum of the respective parent compound. In order to detect unexpected metabolites not covered by the EPI scan approach, precursor ion scan experiments for the characteristic fragment ion at m/z 145 and for the m/z of its modified analogs 161 (monohydroxylation), 177 (dihydroxylation) and 179 (dihydrodiol) were conducted. The relative abundances of the characterized metabolites in the urine samples obtained during the self-administration study were compared using an MRM method comprising the most abundant ion transitions of each metabolite (see Supplementary Fig. S1 and Table S3).
To investigate the in vivo phase I metabolism of Cumyl-PINACA, one of the authors (75 kg person) ingested 0.6 mg Cumyl-PINACA orally. In addition to blank samples taken prior to ingestion, serum and urine samples were collected repeatedly over periods of 17 and 31 h after ingestion, respectively. All samples were stored at − 20 °C until analysis. In Germany, approval by an ethics committee is not required for scientific self-experiments.
(§3) In order to cleave conjugates, 0.5 mL of an urine sample was incubated at 45 °C for 1 h after addition of 0.5 mL phosphate buffer (pH 6) and 30 µL β-glucuronidase. In a next step, 1.5 mL acetonitrile and 0.5 mL ammonium formate ([…]) were added. After shaking and centrifugation, 1 mL of the acetonitrile phase was transferred into a glass vial and evaporated to dryness under a gentle nitrogen stream at 40 °C. The residue was reconstituted in 200 µL mobile phase A/B (50:50, v/v) directly before LC–MS/MS analysis. Blank urine samples were prepared serving as negative controls.

[7] = tested on: pooled human liver microsomes (pHLM); assay: Pooled human liver microsome assay (phase I metabolism); assay type: in vitro ADME; settings: 60 min, 37 °C
Protocol: as §1, §2
To investigate the tentative phase I metabolism of Cumyl-PINACA and 5F-Cumyl-PINACA (extracted from e-liquids), in vitro experiments with pHLM were performed in triplicates. A 0.5-µL volume of a substrate solution ([…] in acetonitrile) was added to 49.5 µL of a reaction mixture consisting of 2.5 µL pHLM, 2.5 µL NADPH regenerating solution A, 0.5 µL NADPH regenerating solution B, 5.0 µL SOD, 10 µL 0.5 M phosphate buffer, and 29 µL deionized water. Incubation was performed for 60 min at 37 °C. The reaction was terminated by the addition of ice-cold acetonitrile, and the supernatant was analyzed after 1:10 dilution with mobile phase A/B (50:50, v/v). Blank pHLM samples were processed in the same way serving as negative controls.

[8] = Authentic urine sample, phase I metabolites of 5F-Cumyl-PINACA (LC-MS/MS); assay type: in vivo, human; settings: for Urine [Peak area]: 5F-Cumyl-PINACA consumption
Protocol: as §1, §2
The analysis of in vivo metabolism of 5F-Cumyl-PINACA in an authentic urine sample was conducted in accordance with the client’s inquest.
as §3

[9] = Self-administration study, phase I metabolites of Cumyl-PINACA in urine (LC-MS/MS); assay type: in vivo, human; settings: normalized to creatinine 100 mg/dL
[10] = 6 h after 0.6 mg Cumyl-PINACA oral
[11] = 16 h after 0.6 mg Cumyl-PINACA oral
[12] = 20.3 h after 0.6 mg Cumyl-PINACA oral
[13] = 22.3 h after 0.6 mg Cumyl-PINACA oral
[14] = 26.3 h after 0.6 mg Cumyl-PINACA oral
[15] = 29.3 h after 0.6 mg Cumyl-PINACA oral
[16] = pHLM incubation of 5F-Cumyl-PINACA
[17] = pHLM incubation of Cumyl-PINACA
[18] = 37.2 h after 0.6 mg Cumyl-PINACA oral

Work on O=C(c1cccc2ccccc12)c1cn(CCCCCF)c2ccccc12 [AM-2201] yielded an EC50 [1] of 0.45 nM, a Curve top [1] of 103 and an Emax ([1]; control ligand CP-55,940) of 101%.
With CC(C)C(NC(=O)c1nn(CC2CCCCC2)c2ccccc12)C(N)=O (stereo not shown) [AB-[…]] the EC50 [1] was 0.28 nM, the Curve top [1] was 94.8 and the Emax [1] was 94.8%.
For CC(C)(NC(=O)c1nn(CC2CCCCC2)c2ccccc12)c1ccccc1, the “potency of CB1 receptor activation compared to CP-55,940” value [2] is given as “greater potency than CP-55,940” and the “potency of CB2 receptor activation compared to CP-55,940” value [3] is given as “greater potency than CP-55,940”.
In the case of CC(C)(NC(=O)c1cn(CC2CCCCC2)c2ccccc12)c1ccccc1 [Cumyl-CHMICA], the “potency of CB1 receptor activation compared to CP-55,940” value [2] is listed as “greater potency than CP-55,940” and the “potency of CB2 receptor activation compared to CP-55,940” value [3] is listed as “greater potency than CP-55,940”.
For COC(=O)C(NC(=O)c1cn(CC2CCCCC2)c2ccccc12)C(C)(C)C (stereo not shown) [MDMB-CHMICA], the EC50 [1] was 0.14 nM, the Curve top [1] was 94.8 and the Emax ([1]; control ligand CP-55,940) was 94.6%.
In the case of CC(C)(NC(=O)c1cn(CCCCCF)c2ccccc12)c1ccccc1 [5F-Cumyl-PICA, reference compound], the “potency of CB1 receptor activation compared to CP-55,940” value [2] is listed as “greater potency than CP-55,940”, the “potency of CB2 receptor activation compared to CP-55,940” value [3] is listed as “greater potency than CP-55,940” and the “CB1 activity compared to CP-55,940” value [4] is listed as “less activities as compared to CP-55,940”. The “CB2 activity compared to CP-55,940” value [5] was “less activities as compared to CP-55,940”.
In the case of CC(C)(NC(=O)c1nn(CCCCCO)c2ccccc12)c1ccccc1 [A08], the “detectable in urine after self-administration” value ([6]; 0.6 mg Cumyl-PINACA oral) is reported as “over 8 days”, the “relative abundance in urine samples” value ([6]; 0.6 mg Cumyl-PINACA oral) is reported as “most abundant metabolite in all analyzed urine samples” and the “peak area in urine” value [6, 10] is reported as 1.7E+07. The “peak area in urine” value [6, 11] was 4.1E+06, the “peak area in urine” value [6, 12] was 1.4E+06 and the “peak area in urine” value [6, 13] was 1.5E+06. For the same molecule, the “peak area in urine” value [6, 14] was 7.7E+05, the “peak area in urine” value [6, 15] was 5.7E+05 and the “pHLM [Peak area]” value [7, 16] was 6.0E+07. For the same molecule, the pHLM [Peak area] [7, 17] was 7.3E+07, the “abundance in authentic urine sample” value [8] was “high abundance” and the “Urine [Peak area]” value [8] was 2.2E+05. The “peak area in urine” value ([9]; 3.2 h after 0.6 mg Cumyl-PINACA oral) was 1.1E+06, the “peak area in urine” value [9, 18] was 4.5E+05 and the “peak area in urine” value ([9]; 39 h after 0.6 mg Cumyl-PINACA oral) was 2.9E+05. The “peak area in urine” value ([9]; 88.5 h after 0.6 mg Cumyl-PINACA oral) was 2.6E+04, the “peak area in urine” value ([9]; 110.3 h after 0.6 mg Cumyl-PINACA oral) was 6.1E+04 and the “peak area in urine” value ([9]; 134 h after 0.6 mg Cumyl-PINACA oral) was 2.7E+04. For the same molecule, the “peak area in urine” value ([9]; 157.5 h after 0.6 mg Cumyl-PINACA oral) was 1.5E+04, the “peak area in urine” value ([9]; 182.5 h after 0.6 mg Cumyl-PINACA oral) was 1.3E+04 and the “peak area in urine” value ([9]; 205.5 h after 0.6 mg Cumyl-PINACA oral) was 1.1E+04.
Molecule CCCCCn1nc(C(=O)NC(C(N)=O)C(C)C)c2ccccc21 (stereo not shown) [AB-PINACA] has an EC50 [1] of 1.74 nM, a Curve top [1] of 92.3 and an Emax ([1]; control ligand CP-55,940) of 95.3%.
O=C(c1cccc2ccccc12)c1nn(CCCCCF)c2ccccc12 [THJ-2201] gave an EC50 [1] of 1.68 nM, a Curve top [1] of 95.6 and an Emax ([1]; control ligand CP-55,940) of 91.9%.
For CC(C)(NC(=O)c1nn(CCCCC(=O)O)c2ccccc12)c1ccccc1 [A07], the “peak area in urine” value [6, 10] was 8.4E+04, the “peak area in urine” value [6, 11] was 1.1E+05 and the “peak area in urine” value [6, 12] was 5.2E+04. For the same molecule, the “peak area in urine” value [6, 13] was 6.0E+04, the “peak area in urine” value [6, 14] was 4.2E+04 and the “peak area in urine” value [6, 15] was 2.1E+04. For the same molecule, the “pHLM [Peak area]” value [7, 16] was 9.3E+06, the pHLM [Peak area] [7, 17] was 2.9E+06 and the “Urine [Peak area]” value [8] was 1.8E+05. For the same molecule, the “peak area in urine” value [9, 18] was 1.7E+04.
Work on CCCCCn1c2ccccc2c2cc(C(=O)c3cccc4ccccc34)ccc21 [EG-018] yielded a Curve top [1] of 74.3 and an Emax ([1]; control ligand CP-55,940) of 71.8%.
CCCCCn1cc(C(=O)c2cccc3ccccc23)c2ccccc21 [JWH-018] showed an EC50 [1] of 1.13 nM, a Curve top [1] of 97.6 and an Emax ([1]; control ligand CP-55,940) of 97.4%.
For CC(C)(NC(=O)c1nn(Cc2ccc(F)cc2)c2ccccc12)c1ccccc1 [Cumyl-FUBINACA], the “potency of CB1 receptor activation compared to CP-55,940” value [2] is listed as “greater potency than CP-55,940” and the “potency of CB2 receptor activation compared to CP-55,940” value [3] is listed as “greater potency than CP-55,940”.
For CCCCn1nc(C(=O)NC(C)(C)c2ccccc2)c2ccccc21 [Cumyl-BINACA], the “potency of CB1 receptor activation compared to CP-55,940” value [2] is given as “greater potency than CP-55,940” and the “potency of CB2 receptor activation compared to CP-55,940” value [3] is given as “greater potency than CP-55,940”.
With CC(C)(NC(=O)c1nn(CCCCCF)c2c1=CC(O)C(O)C=2)c1ccccc1 (stereo not shown) [B01] the “pHLM [Peak area]” value [7, 16] was 7.0E+06 and the “Urine [Peak area]” value [8] was 5.6E+04.
For CCCCn1cc(C(=O)NC(C)(C)c2ccccc2)c2ccccc21 [Cumyl-BICA], the “potency of CB1 receptor activation compared to CP-55,940” value [2] is listed as “greater potency than CP-55,940” and the “potency of CB2 receptor activation compared to CP-55,940” value [3] is listed as “greater potency than CP-55,940”.
Molecule CC(C)C(NC(=O)c1nn(Cc2ccc(F)cc2)c2ccccc12)C(N)=O (stereo not shown) [AB-FUBINACA] has an EC50 [1] of 0.89 nM, a Curve top [1] of 97.4 and an Emax ([1]; control ligand CP-55,940) of 97.8%.
For CCCCCn1cc(C(=O)NC(C)(C)c2ccccc2)c2ccccc21 [Cumyl-PICA, reference compound], the “potency of CB1 receptor activation compared to CP-55,940” value [2] is listed as “greater potency than CP-55,940”, the “potency of CB2 receptor activation compared to CP-55,940” value [3] is listed as “greater potency than CP-55,940” and the “CB1 activity compared to CP-55,940” value [4] is listed as “less activities as compared to CP-55,940”. The “CB2 activity compared to CP-55,940” value [5] was “less activities as compared to CP-55,940”.
For CC(C)(NC(=O)c1nn(CCCCCF)c2ccccc12)c1ccccc1 [5F-Cumyl-PINACA, 1-(5-fluoropentyl)-N-(2-phenylpropan-2-yl)-1H-indazole-3-carboxamide], the “detection of parent compound in urine” value [8] is listed as “not detected”, the “potency of CB1 receptor activation compared to CP-55,940” value [2] is listed as “greater potency than CP-55,940” and the “potency of CB2 receptor activation compared to CP-55,940” value [3] is listed as “greater potency than CP-55,940”. The “CB1 activity compared to CP-55,940” value [4] was “less activities as compared to CP-55,940” and the “CB2 activity compared to CP-55,940” value [5] was “less activities as compared to CP-55,940”.
